Assay results: US20180258100A1, “RAPAMYCIN ANALOGS SHOWING IMPROVED mTORC1 SPECIFICITY” (priority 2015, published 2018)

Legend:
mTORC1 = biological target: T1, mTORC1 (Homo sapiens, UniProt P42345+P62942); experiment: Western blot of PC3 cells, 24 h at 100 nM, comparison with commercial rapalogs, mTORC1 (p-S6K); assay type: cell-based
T1 construct: endogenous in cells; host or cells: PC3 cells
Method: (§1) PC3 cells were maintained in F12K media supplemented with 10% FBS, 1% Penicillin/Streptomycin, and 2 mM L-Glutamine and cultured at 37° C. Cells were treated with 100 nM Rapamycin, Temsirolimus, Everolimus, and rapalog compounds 390, 394, 824, 384 or 405 for 24 h and harvested in RIPA buffer (300 mM NaCl, 1.0% NP-40, 0.5% sodium deoxycholate, 0.1% SDS, 50 mM Tris pH 8.0. Protein concentrations were determined using the DC protein assay (Biorad).
(§2) Equal amounts of protein were resolved by SDS-PAGE and transferred to nitrocellulose membrane using the Invitrogen Nu-Page system. The membranes were blocked for 1 h in 5% milk and incubated overnight in the appropriate antibodies. The following day, blots were washed 3 times in TBST, incubated for 2 h with secondary antibodies (donkey anti rabbit hrp conjugated), and finally washed an additional 3 times in TBST. ECL Prime (Amersham) was used to detect the proteins of interest and blots were quantified using ImageJ software.

mTORC2 = biological target: T2, mTORC2 (Homo sapiens, UniProt P42345+P62942); experiment: Western blot of PC3 cells, 24 h at 100 nM, comparison with commercial rapalogs, mTORC2 (p-Akt); assay type: cell-based; settings: PC-3, read-out: mTORC2 (p-Akt) activity, % of control
T2 construct: endogenous in cells; host or cells: PC3 cells
T2 sequence (P62942 2-108 limits assumed, other chains not shown): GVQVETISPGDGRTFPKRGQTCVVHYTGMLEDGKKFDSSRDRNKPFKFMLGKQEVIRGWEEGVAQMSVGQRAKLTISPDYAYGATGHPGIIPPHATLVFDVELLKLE
Method: as §1, §2

[1] = Plasma lipid levels after chronic i.p. dosing; assay type: in vivo, female C57BL/6J mice; settings: rapamycin 8 mg/kg, compound 390 12 mg/kg i.p. every other day; versus vehicle
Method: (§3) 10-week old female C57BL/6J mice were given intraperitoneal injections of 8 mg/kg rapamycin (LC laboratories), 12 mg/kg compound 390 or vehicle every other day for three weeks (N=5 mice/group), such as to mimic chronic exposure conditions. 24 hours after the last injection, tissues were dissected from the mice and immediately frozen in liquid nitrogen. The tissues were homogenized using the Omni TH homogenizer (Omni International) on ice in RIPA buffer and then centrifuged at 13,000 rpm for 15 minutes at 4° C. The supernatants were collected and protein concentration was determined using the DC protein assay (Biorad).
Plasma lipid levels were determined at the end of the three-week exposure. Free fatty acids in the serum were measured by the HR Series NEFA-HR(2) (Wako Diagnostics, Richmond, Va.). Triglycerides and cholesterol in serum were measured by Triglycerides Liquicolor Test and Cholesterol Liquicolor Test (Stanbio laboratory, Boerne, Tex.), respectively.

[2] = Steady state glucose levels after one week of i.p. dosing; assay type: in vivo, female C57BL/6J mice; settings: 8 mg/kg i.p. every other day
Method: as §3
Steady state glucose levels were determined after one week from study initiation using a Bayer Contour blood glucose meter and test strips from small blood samples, which were withdrawn from a tail vein nick. At the end of the second week, the animals were challenged by administration of 2 mg/kg glucose; glucose levels were determined for two hours following the challenge at 30 min intervals.

[3] = Glucose challenge response; assay type: in vivo, female C57BL/6J mice; settings: 2 mg/kg glucose after 1 week; rapamycin 8 mg/kg, compound 390 12 mg/kg i.p. every other day
Method: as §3
Steady state glucose levels were determined after one week from study initiation using a Bayer Contour blood glucose meter and test strips from small blood samples, which were withdrawn from a tail vein nick. […]

[4] = Insulin challenge response; assay type: in vivo, female C57BL/6J mice; settings: 0.75 IU/kg insulin after 2 weeks; rapamycin 8 mg/kg, compound 390 12 mg/kg i.p. every other day
Method: FIG. 10. Response to insulin challenge following administration of 0.75 IU/kg insulin at t=2 weeks following the initiation of the intraperitoneal administrations of 8 mg/kg rapamycin, 12 mg/kg compound 390 or vehicle control every other day in female mice (N=5).
as §3

[5] = Glucose tolerance test after 2 weeks of chronic dosing; assay type: in vivo, male C57BL/6J mice; settings: rapamycin 8 mg/kg, compound 390 12 mg/kg every other day, male mice
Method: Fortyfive C57BL/6J male mice, housed three per cage, were weighed and their body composition was measured with an EchoMRI 3-in-1 system. […] Mice received every-other-day injections of either vehicle, rapamycin (8 mg/kg), or compound 390 (12 mg/kg). A glucose tolerance test was performed after 2 weeks (morning after the 8th injection). A pyruvate tolerance test was performed after 3 weeks. Glucose stimulated insulin secretion assay was performed after 4 weeks and additional blood was collected for whole blood analysis. Body composition was measured on day −2 and day 31.
Mice were fasted overnight for 16 hours and then injected with either glucose (1 g/kg) or pyruvate (2 g/kg) intraperitoneally. For glucose and pyruvate tolerance tests, small blood samples were taken from a tail vein nick at time intervals and read using a Bayer Contour blood glucose meter and test strips. For glucose-stimulated insulin secretion, blood glucose levels were read using a glucometer and then 50 μL of blood was collected into a heparinized tube immediately prior to and 15 minutes following glucose administration. Insulin levels were determined using a Mouse Insulin ELISA kit (Crystal Chem).

[6] = Fat mass by EchoMRI body composition after four weeks; assay type: in vivo, male C57BL/6J mice; settings: 4 weeks of every other day administration; rapamycin 8 mg/kg, compound 390 12 mg/kg; versus vehicle
Method: Fortyfive C57BL/6J male mice, housed three per cage, were weighed and their body composition was measured with an EchoMRI 3-in-1 system. Cages were sorted into three groups—vehicle, rapamycin, and compound 390—such that the average weight was similar for all three groups. Mice received every-other-day injections of either vehicle, rapamycin (8 mg/kg), or compound 390 (12 mg/kg). A glucose tolerance test was performed after 2 weeks (morning after the 8th injection). A pyruvate tolerance test was performed after 3 weeks. Glucose stimulated insulin secretion assay was performed after 4 weeks and additional blood was collected for whole blood analysis. Body composition was measured on day −2 and day 31.

mTORC1 (p-S6K) inhibition (mTORC1) | remaining activity at 0.1 µM (mTORC2) | glucose steady state level [2] | increase of glucose steady state level from baseline [2] | increase of glucose steady state level versus vehicle-receiving animals [2] | SMILES | plasma free fatty acids [1] | glucose response after glucose challenge (glucose intolerance) [3] | glucose response after insulin challenge (insulin resistance) [4] | glucose tolerance test ([5]; after 2 weeks) | fasting hyperglycemia ([5]; chronic dosing) | fat mass (adiposity) [6]
performed identically to rapamycin | ~5% |  |  |  | CO[C@H]1C[C@@H]2CC[C@@H](C)[C@@](O)(O2)C(=O)C(=O)N2CCCC[C@H]2C(=O)O[C@H]([C@H](C)C[C@@H]2CC[C@@H](OCCO)[C@H](OC)C2)CC(=O)[C@H](C)/C=C(\C)[C@@H](O)[C@@H](OC)C(=O)[C@H](C)C[C@H](C)/C=C/C=C/C=C/1C [Everolimus] |  |  |  |  |  | 
 | ~5% | ~75 mg/dL | approx. 55% | 3 fold | CO[C@H]1C[C@@H]2CC[C@@H](C)[C@@](O)(O2)C(=O)C(=O)N2CCCC[C@H]2C(=O)O[C@H]([C@H](C)C[C@@H]2CC[C@@H](O)[C@H](OC)C2)CC(=O)[C@H](C)/C=C(\C)[C@@H](O)[C@@H](OC)C(=O)[C@H](C)C[C@H](C)/C=C/C=C/C=C/1C [Rapamycin] | substantial and statistically significant increase | deviates significantly from the response observed with the control animals | deviates significantly from the response observed with the control animals | impaired glucose and pyruvate tolerance tests | induced | statistically significant increase of fat mass
performed identically to rapamycin | ~5% |  |  |  | CO[C@H]1C[C@@H]2CC[C@@H](C)[C@@](O)(O2)C(=O)C(=O)N2CCCC[C@H]2C(=O)O[C@H]([C@H](C)C[C@@H]2CC[C@@H](OC(=O)C(C)(CO)CO)[C@H](OC)C2)CC(=O)[C@H](C)/C=C(\C)[C@@H](O)[C@@H](OC)C(=O)[C@H](C)C[C@H](C)/C=C/C=C/C=C/1C [Temsirolimus] |  |  |  |  |  | 
